Source: US8318762B2, “Pyrazolospiroketone acetyl-CoA carboxylase inhibitors” (Pfizer Inc., priority 2008, dated 2012)
Read-outs that look alike come from different tables or passages of the source.

Molecular target: T1, recombinant human ACC2 (Homo sapiens, UniProt O00763)
T1 construct: a full length Cytomax clone of ACC2 was purchased from Cambridge Bioscience Limited; made in house; host or cells: CHO cells (tetracycline induction, pcDNA5 FRT TO-TOPO); purified on a Softlink Soft Release Avidin column
Assay: Measurement of human ACC2 inhibition (recombinant hACC2 Transcreener ADP detection FP assay)
Format: biochemical
Procedure: [3] Measurement of human ACC2 inhibition. Human ACC2 inhibition was measured using purified recombinant human ACC2 (hrACC2). […] The ACC2 was expressed in CHO cells by tetracycline induction and harvested in 5 liters of DMEM/F12 with glutamine, biotin, hygromycin and blasticidin with 1 μg/mL tetracycline (Invitrogen, Carlsbad, Calif.). The conditioned medium containing ACC2 was then applied to a Softlink Soft Release Avidin column (Promega, Madison, Wis.) and eluted with 5 mM biotin. […] The purified ACC2 was dialyzed in 50 mM Tris, 200 mM NaCl, 4 mM DTT, 2 mM EDTA, and 5% glycerol. […] The final conditions for the assay were 50 mM HEPES, pH7.5, 5 mM MgCl2, 5 mM tripotassium citrate, 2 mM DTT, 0.5 mg/mL BSA, 30 μM acetyl-CoA, 50 μM ATP, and 8 mM KHCO3. Typically, a 10 μl reaction was run for 1 hour at room temperature, and 10 μl of Transcreener stop and detect buffer was added and incubated for an additional 1 hour.

[1] = recombinant hACC2 transcreener assay, read-out: rhACC2 IC50

T1 sequence (O00763 whole entry): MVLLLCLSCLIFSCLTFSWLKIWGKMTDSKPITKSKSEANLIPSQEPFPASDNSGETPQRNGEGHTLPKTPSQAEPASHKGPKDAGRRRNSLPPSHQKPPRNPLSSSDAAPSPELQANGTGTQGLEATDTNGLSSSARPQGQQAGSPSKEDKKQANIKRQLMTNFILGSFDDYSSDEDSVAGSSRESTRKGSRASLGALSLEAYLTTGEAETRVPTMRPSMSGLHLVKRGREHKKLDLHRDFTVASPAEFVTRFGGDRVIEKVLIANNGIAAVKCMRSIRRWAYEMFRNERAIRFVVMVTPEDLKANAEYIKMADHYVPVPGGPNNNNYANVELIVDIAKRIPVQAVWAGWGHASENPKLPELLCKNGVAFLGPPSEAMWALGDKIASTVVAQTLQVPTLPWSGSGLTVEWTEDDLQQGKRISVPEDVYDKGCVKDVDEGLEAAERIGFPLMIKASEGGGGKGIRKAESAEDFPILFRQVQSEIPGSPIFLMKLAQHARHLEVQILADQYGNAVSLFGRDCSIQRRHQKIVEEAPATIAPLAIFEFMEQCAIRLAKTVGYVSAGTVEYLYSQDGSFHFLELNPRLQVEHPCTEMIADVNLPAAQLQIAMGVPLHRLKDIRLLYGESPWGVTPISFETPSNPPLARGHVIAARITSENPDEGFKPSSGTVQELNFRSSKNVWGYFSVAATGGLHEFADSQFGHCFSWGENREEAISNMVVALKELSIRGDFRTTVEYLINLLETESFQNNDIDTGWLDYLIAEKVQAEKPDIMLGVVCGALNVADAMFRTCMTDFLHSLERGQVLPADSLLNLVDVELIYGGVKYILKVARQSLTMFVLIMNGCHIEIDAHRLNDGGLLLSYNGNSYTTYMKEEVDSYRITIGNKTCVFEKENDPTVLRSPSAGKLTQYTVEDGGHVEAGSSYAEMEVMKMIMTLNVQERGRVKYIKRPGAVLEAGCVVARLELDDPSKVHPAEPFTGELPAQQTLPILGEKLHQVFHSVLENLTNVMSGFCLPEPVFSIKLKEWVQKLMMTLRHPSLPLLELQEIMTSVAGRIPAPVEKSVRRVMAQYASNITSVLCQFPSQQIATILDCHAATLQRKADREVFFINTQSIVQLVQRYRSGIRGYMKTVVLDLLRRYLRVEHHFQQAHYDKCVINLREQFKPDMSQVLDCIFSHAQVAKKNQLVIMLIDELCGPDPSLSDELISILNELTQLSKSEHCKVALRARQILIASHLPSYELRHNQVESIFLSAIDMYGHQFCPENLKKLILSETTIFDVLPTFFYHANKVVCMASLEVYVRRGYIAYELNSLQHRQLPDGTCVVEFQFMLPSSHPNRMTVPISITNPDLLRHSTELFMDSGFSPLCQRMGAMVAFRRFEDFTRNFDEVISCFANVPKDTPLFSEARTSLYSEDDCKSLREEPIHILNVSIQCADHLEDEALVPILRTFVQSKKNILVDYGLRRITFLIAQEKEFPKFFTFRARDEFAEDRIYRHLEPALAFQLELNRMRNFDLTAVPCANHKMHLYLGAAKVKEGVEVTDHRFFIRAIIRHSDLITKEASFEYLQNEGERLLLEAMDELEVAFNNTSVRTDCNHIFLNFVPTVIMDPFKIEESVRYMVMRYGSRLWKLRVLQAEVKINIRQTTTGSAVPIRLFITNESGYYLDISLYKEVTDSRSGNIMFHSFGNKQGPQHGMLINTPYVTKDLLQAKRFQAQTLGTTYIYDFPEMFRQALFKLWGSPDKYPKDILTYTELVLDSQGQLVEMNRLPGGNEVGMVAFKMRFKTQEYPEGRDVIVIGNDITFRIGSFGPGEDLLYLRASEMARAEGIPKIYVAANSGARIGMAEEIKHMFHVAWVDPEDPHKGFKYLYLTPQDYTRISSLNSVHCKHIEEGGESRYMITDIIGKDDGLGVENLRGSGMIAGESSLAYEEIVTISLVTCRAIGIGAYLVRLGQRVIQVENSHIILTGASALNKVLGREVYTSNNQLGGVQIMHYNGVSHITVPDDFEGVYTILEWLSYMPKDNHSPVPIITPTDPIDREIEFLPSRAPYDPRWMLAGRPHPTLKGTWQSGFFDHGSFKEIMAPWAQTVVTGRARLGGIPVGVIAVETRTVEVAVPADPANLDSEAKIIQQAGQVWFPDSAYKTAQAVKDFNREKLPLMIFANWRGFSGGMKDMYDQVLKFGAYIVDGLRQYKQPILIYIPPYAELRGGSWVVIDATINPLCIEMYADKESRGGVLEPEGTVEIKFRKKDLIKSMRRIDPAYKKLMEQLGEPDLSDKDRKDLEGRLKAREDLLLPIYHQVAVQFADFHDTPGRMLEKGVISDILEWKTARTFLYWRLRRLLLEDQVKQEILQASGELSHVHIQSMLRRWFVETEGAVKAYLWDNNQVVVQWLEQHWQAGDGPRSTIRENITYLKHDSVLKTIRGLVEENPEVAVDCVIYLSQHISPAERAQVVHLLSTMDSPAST

| IC50 [1] | Structure (SMILES) | IC50 |
| --- | --- | --- |
| 8 nM | Cc1n[nH]c2c(C)cc(C(=O)N3CCC4(CC3)CC(=O)c3nn(C(C)C)cc3O4)cc12 [1.002] | – |
| 20 nM | CCCn1cc2c(n1)C(=O)CC1(CCN(C(=O)c3cc(C)c4[nH]nc(C)c4c3)CC1)O2 [1.004] | – |
| 117 nM | Cc1n[nH]c2c(C)cc(C(=O)N3CCC4(CC3)CC(=O)c3nn(C)c(C)c3O4)cc12 [1.005] | – |
| 80 nM | Cc1n[nH]c2c(C)cc(C(=O)N3CCC4(CC3)CC(=O)c3nn(C)cc3O4)cc12 [1.006] | – |
| 189 nM | CCc1c2c(nn1C)C(=O)CC1(CCN(C(=O)c3cc(C)c4[nH]nc(C)c4c3)CC1)O2 [1.007] | – |
| 21 nM | Cc1n[nH]c2c(C)cc(C(=O)N3CCC4(CC3)CC(=O)c3nn(C5CCCCC5)cc3O4)cc12 [1.008] | – |
| 4 nM | Cc1n[nH]c2c(C)cc(C(=O)N3CCC4(CC3)CC(=O)c3nn(C5CCCC5)cc3O4)cc12 [1.009] | – |
| 4 nM | Cc1n[nH]c2c(C)cc(C(=O)N3CCC4(CC3)CC(=O)c3nn(C5CCC5)cc3O4)cc12 [1.010] | – |
| 15 nM | Cc1n[nH]c2c(C)cc(C(=O)N3CCC4(CC3)CC(=O)c3nn(C(C)(C)C)c(C)c3O4)cc12 [1.011] | – |
| 8 nM | Cc1n[nH]c2c(C)cc(C(=O)N3CCC4(CC3)CC(=O)c3nn(C(C)C)c(C)c3O4)cc12 [1.013] | – |
| 9 nM | Cc1n[nH]c2c(C)cc(C(=O)N3CCC4(CC3)CC(=O)c3nn(C5CC5)c(C)c3O4)cc12 [1.014] | – |
| 22 nM | Cc1n[nH]c2c(C)cc(C(=O)N3CCC4(CC3)CC(=O)c3nn(C5CCOC5)cc3O4)cc12 (centres unmarked) [1.016] | – |
| 3 nM | CCc1n[nH]c2c(C)cc(C(=O)N3CCC4(CC3)CC(=O)c3nn(C(C)C)cc3O4)cc12 [1.017] | – |
| 34 nM | CCOc1cc(C(=O)N2CCC3(CC2)CC(=O)c2nn(CC)c(C)c2O3)cc2c(CC)n[nH]c12 [1.018] | – |
| 18 nM | CCc1n[nH]c2c(C)cc(C(=O)N3CCC4(CC3)CC(=O)c3nn(CC)cc3O4)cc12 [1.019] | – |
| 3 nM | CCc1n[nH]c2c(C)cc(C(=O)N3CCC4(CC3)CC(=O)c3nn(C(C)(C)C)cc3O4)cc12 [1.020] | – |
| 54 nM | CCn1cc2c(n1)C(=O)CC1(CCN(C(=O)c3cc(C)c4[nH]ncc4c3)CC1)O2 [1.025] | – |
| 127 nM | COc1cc(-n2nc3c(c2C)OC2(CCN(C(=O)c4cc(C)c5[nH]ncc5c4)CC2)CC3=O)ccc1C#N [1.028] | – |
| – | Cc1cc(C(=O)N2CCC3(CC2)CC(=O)c2nn(C)cc2O3)cc2cn[nH]c12 [1.029] | 629 nM |
| 376 nM | Cc1cc(C(=O)N2CCC3(CC2)CC(=O)c2nn(C)c(C)c2O3)cc2cn[nH]c12 [1.030] | – |
| 487 nM | Cc1cc(C(=O)N2CCC3(CC2)CC(=O)c2nn(Cc4ccccc4)c(C)c2O3)cc2cn[nH]c12 [1.033] | – |
| 367 nM | CCc1c2c(nn1C)C(=O)CC1(CCN(C(=O)c3cc(C)c4[nH]ncc4c3)CC1)O2 [1.035] | – |
| 60 nM | Cc1cc(C(=O)N2CCC3(CC2)CC(=O)c2nn(C4CCCCC4)cc2O3)cc2cn[nH]c12 [1.037] | – |
| 15 nM | Cc1cc(C(=O)N2CCC3(CC2)CC(=O)c2nn(C(C)C)c(C)c2O3)cc2cn[nH]c12 [1.040] | – |
| 46 nM | Cc1cc(C(=O)N2CCC3(CC2)CC(=O)c2nn(C4CCOC4)c(C)c2O3)cc2cn[nH]c12 (centres unmarked) [1.041] | – |

| IC50 [1] | Structure (SMILES) | IC50 |
| --- | --- | --- |
| 43 nM | Cc1cc(C(=O)N2CCC3(CC2)CC(=O)c2nn(C(C)(C)C)c(C)c2O3)cc2cn[nH]c12 [1.043] | – |
| 5 nM | CCc1n[nH]c2c(OC)cc(C(=O)N3CCC4(CC3)CC(=O)c3nn(C(C)C)cc3O4)cc12 [1.044] | – |
| 22 nM | CCc1n[nH]c2c(OC)cc(C(=O)N3CCC4(CC3)CC(=O)c3nn(CC)c(C)c3O4)cc12 [1.045] | – |
| 29 nM | CCc1n[nH]c2c(OC)cc(C(=O)N3CCC4(CC3)CC(=O)c3nn(CC)cc3O4)cc12 [1.046] | – |
| 2 nM | CCc1n[nH]c2c(OC)cc(C(=O)N3CCC4(CC3)CC(=O)c3nn(C(C)(C)C)cc3O4)cc12 [1.047] | – |
| 18 nM | CCc1n[nH]c2c(OC)cc(C(=O)N3CCC4(CC3)CC(=O)c3nn(C5CCCCC5)cc3O4)cc12 [1.048] | – |
| 7 nM | CCc1n[nH]c2c(OC)cc(C(=O)N3CCC4(CC3)CC(=O)c3nn(C5CCCC5)cc3O4)cc12 [1.049] | – |
| 5 nM | CCc1n[nH]c2c(OC)cc(C(=O)N3CCC4(CC3)CC(=O)c3nn(C5CCC5)cc3O4)cc12 [1.050] | – |
| 17 nM | COc1cc(C(=O)N2CCC3(CC2)CC(=O)c2nn(C(C)C)cc2O3)cc2cn[nH]c12 [1.051] | – |
| 33 nM | CCn1nc2c(c1C)OC1(CCN(C(=O)c3cc(OC)c4[nH]ncc4c3)CC1)CC2=O [1.052] | – |
| 62 nM | CCn1cc2c(n1)C(=O)CC1(CCN(C(=O)c3cc(OC)c4[nH]ncc4c3)CC1)O2 [1.053] | – |
| 29 nM | COc1cc(C(=O)N2CCC3(CC2)CC(=O)c2nn(C(C)(C)C)c(C)c2O3)cc2cn[nH]c12 [1.054] | – |
| 10 nM | COc1cc(C(=O)N2CCC3(CC2)CC(=O)c2nn(C(C)C)c(C)c2O3)cc2cn[nH]c12 [1.055] | – |
| 35 nM | CCc1cc(C(=O)N2CCC3(CC2)CC(=O)c2nn(CC)c(C)c2O3)cc2cn[nH]c12 [1.056] | – |
| 40 nM | CCc1cc(C(=O)N2CCC3(CC2)CC(=O)c2nn(CC)cc2O3)cc2cn[nH]c12 [1.057] | – |
| 210 nM | CCc1cc(C(=O)N2CCC3(CC2)CC(=O)c2nn(C)cc2O3)cc2cn[nH]c12 [1.059] | – |
| 6 nM | CCc1cc(C(=O)N2CCC3(CC2)CC(=O)c2nn(C(C)(C)C)cc2O3)cc2cn[nH]c12 [1.060] | – |
| 54 nM | CCn1nc2c(c1C)OC1(CCN(C(=O)c3cc(Cl)c4[nH]ncc4c3)CC1)CC2=O [1.061] | – |
| 43 nM | CCn1cc2c(n1)C(=O)CC1(CCN(C(=O)c3cc(Cl)c4[nH]ncc4c3)CC1)O2 [1.062] | – |
| 137 nM | Cc1c2c(nn1C)C(=O)CC1(CCN(C(=O)c3cc(Cl)c4[nH]ncc4c3)CC1)O2 [1.063] | – |
| 8 nM | CC(C)(C)n1cc2c(n1)C(=O)CC1(CCN(C(=O)c3cc(Cl)c4[nH]ncc4c3)CC1)O2 [1.065] | – |
| 26 nM | CC(C)n1cc2c(n1)C(=O)CC1(CCN(C(=O)c3cc(Cl)c4[nH]ncc4c3)CC1)O2 [1.066] | – |
| 50 nM | CC(C)n1cc2c(n1)C(=O)CC1(CCN(C(=O)c3ccc4[nH]ncc4c3)CC1)O2 [1.067] | – |
| 84 nM | CCn1nc2c(c1C)OC1(CCN(C(=O)c3ccc4[nH]ncc4c3)CC1)CC2=O [1.068] | – |
| 197 nM | CCn1cc2c(n1)C(=O)CC1(CCN(C(=O)c3ccc4[nH]ncc4c3)CC1)O2 [1.069] | – |

| IC50 [1] | Structure (SMILES) | IC50 |
| --- | --- | --- |
| 713 nM | Cc1c2c(nn1C)C(=O)CC1(CCN(C(=O)c3ccc4[nH]ncc4c3)CC1)O2 [1.070] | – |
| 773 nM | Cn1cc2c(n1)C(=O)CC1(CCN(C(=O)c3ccc4[nH]ncc4c3)CC1)O2 [1.071] | – |
| 61 nM | Cc1c2c(nn1C(C)(C)C)C(=O)CC1(CCN(C(=O)c3ccc4[nH]ncc4c3)CC1)O2 [1.072] | – |
| 35 nM | Cc1c2c(nn1C(C)C)C(=O)CC1(CCN(C(=O)c3ccc4[nH]ncc4c3)CC1)O2 [1.073] | – |
| 6 nM | COc1cc(C(=O)N2CCC3(CC2)CC(=O)c2nn(C(C)C)cc2O3)cc2c(C)n[nH]c12 [1.075] | – |
| 2 nM | COc1cc(C(=O)N2CCC3(CC2)CC(=O)c2nn(C(C)(C)C)cc2O3)cc2c(C)n[nH]c12 [1.076] | – |
| 15 nM | CCn1nc2c(c1C)OC1(CCN(C(=O)c3cc(OC)c4[nH]nc(C)c4c3)CC1)CC2=O [1.077] | – |
| 4 nM | COc1cc(C(=O)N2CCC3(CC2)CC(=O)c2nn(C(C)C)c(C)c2O3)cc2c(C)n[nH]c12 [1.078] | – |
| 12 nM | CCn1cc2c(n1)C(=O)CC1(CCN(C(=O)c3cc(OC)c4[nH]nc(C)c4c3)CC1)O2 [1.079] | – |
| 36 nM | CCn1nc2c(c1C)OC1(CCN(C(=O)c3ccc4[nH]nc(C)c4c3)CC1)CC2=O [1.080] | – |
| 10 nM | Cc1n[nH]c2ccc(C(=O)N3CCC4(CC3)CC(=O)c3nn(C(C)C)cc3O4)cc12 [1.081] | – |
| 53 nM | CCCn1cc2c(n1)C(=O)CC1(CCN(C(=O)c3ccc4[nH]nc(C)c4c3)CC1)O2 [1.082] | – |
| 43 nM | CCn1cc2c(n1)C(=O)CC1(CCN(C(=O)c3ccc4[nH]nc(C)c4c3)CC1)O2 [1.083] | – |
| 403 nM | Cc1n[nH]c2ccc(C(=O)N3CCC4(CC3)CC(=O)c3nn(C)cc3O4)cc12 [1.085] | – |
| 3 nM | Cc1n[nH]c2ccc(C(=O)N3CCC4(CC3)CC(=O)c3nn(C(C)(C)C)cc3O4)cc12 [1.086] | – |
| 135 nM | Cc1n[nH]c2ccc(C(=O)N3CCC4(CC3)CC(=O)c3nn(C5CCCCC5)cc3O4)cc12 [1.087] | – |
| 16 nM | Cc1n[nH]c2ccc(C(=O)N3CCC4(CC3)CC(=O)c3nn(C5CCCC5)cc3O4)cc12 [1.088] | – |
| 22 nM | Cc1n[nH]c2ccc(C(=O)N3CCC4(CC3)CC(=O)c3nn(C5CCC5)cc3O4)cc12 [1.089] | – |
| 23 nM | Cc1n[nH]c2ccc(C(=O)N3CCC4(CC3)CC(=O)c3nn(C(C)(C)C)c(C)c3O4)cc12 [1.090] | – |
| 15 nM | Cc1n[nH]c2ccc(C(=O)N3CCC4(CC3)CC(=O)c3nn(C(C)C)c(C)c3O4)cc12 [1.091] | – |
| 18 nM | CCc1n[nH]c2ccc(C(=O)N3CCC4(CC3)CC(=O)c3nn(CC)cc3O4)cc12 [1.093] | – |
| 397 nM | CCc1n[nH]c2ccc(C(=O)N3CCC4(CC3)CC(=O)c3nn(C)cc3O4)cc12 [1.095] | – |
| 12 nM | CCc1n[nH]c2ccc(C(=O)N3CCC4(CC3)CC(=O)c3nn(C(C)(C)C)cc3O4)cc12 [1.096] | – |
| 20 nM | CCc1nn(C)c2c(OC)cc(C(=O)N3CCC4(CC3)CC(=O)c3nn(CC)cc3O4)cc12 [1.099] | – |
